The values below come from a polymer gas permeability compilation.

`*C(=C(*)c1ccc2c(c1)C(C)(C)c1ccccc1-2)c1ccc(F)c(F)c1` (repeat unit) showed a CH4 permeability of 12000 Barrer, a CO2 permeability of 26000 Barrer, an H2 permeability of 11000 Barrer and an N2 permeability of 5100 Barrer. For the same compound, the O2 permeability stood at 6600 Barrer.
For `*C(=C(*)c1ccc2c(c1)C(C)(C)c1ccccc1-2)c1cccc(F)c1` (repeat unit), in that order: 11000 Barrer, 18000 Barrer, 9900 Barrer, 4200 Barrer and 5900 Barrer.
Compound `*C(=C(*)c1ccc2c(c1)C(C)(C)c1ccccc1-2)c1ccccc1` (repeat unit) had a CH4 permeability of 9100 Barrer, a CO2 permeability of 17000 Barrer, an H2 permeability of 8100 Barrer and an N2 permeability of 3300 Barrer. Besides, the O2 permeability worked out at 4800 Barrer.
The like results for `*C(=C(*)c1ccc2c(c1)CCC2)c1ccc([Si](C)(C)C)cc1` (repeat unit) were, in that order, 470 Barrer, 2000 Barrer, 1100 Barrer, 170 Barrer and 450 Barrer.
The like results for `*c1ccc(C(c2ccc(N3C(=O)c4ccc(Oc5cc(C)c(Oc6ccc7c(c6)C(=O)N(*)C7=O)c(C)c5C)cc4C3=O)cc2)(C(F)(F)F)C(F)(F)F)cc1` (repeat unit) were, in that order, 1.7 Barrer, 54 Barrer, 77 Barrer, 1.9 Barrer and 9.3 Barrer.
`*c1ccc(C2(c3ccc(*)cc3)c3ccccc3-c3ccccc32)cc1` (repeat unit) displayed a CH4 permeability of 0.84 Barrer, a CO2 permeability of 35.6 Barrer, an N2 permeability of 1.36 Barrer and an O2 permeability of 6.8 Barrer.
`*c1ccc(Cc2ccc(-n3c(=O)c4cc5c(=O)n(*)c(=O)c5cc4c3=O)cc2)cc1` (repeat unit) returned a CH4 permeability of 0.0576 Barrer, a CO2 permeability of 2.5 Barrer, an H2 permeability of 6.61 Barrer and an N2 permeability of 0.069 Barrer. The O2 permeability is 0.398 Barrer.
Regarding `*c1ccc(Cc2ccc(N3C(=O)c4ccc(-c5ccc6c(c5)C(=O)N(*)C6=O)cc4C3=O)cc2)cc1` (repeat unit), the CH4 permeability was 0.0532 Barrer, the CO2 permeability was 1.58 Barrer, the H2 permeability is 6.35 Barrer and the N2 permeability came out at 0.0221 Barrer. Also, the O2 permeability is 0.188 Barrer.
For the compound `*c1ccc(Cc2ccc(N3C(=O)c4ccc(-c5ccc6c(c5)C(=O)N(*)C6=O)cc4C3=O)cc2Cl)c(Cl)c1` (repeat unit), the CH4 permeability stood at 0.0055 Barrer, the CO2 permeability was determined as 0.335 Barrer, the N2 permeability came to 0.0107 Barrer and the O2 permeability was found to be 0.0957 Barrer.
The like results for `*c1ccc(Cc2ccc(N3C(=O)c4ccc(C(c5ccc6c(c5)C(=O)N(*)C6=O)(C(F)(F)F)C(F)(F)F)cc4C3=O)c(O)c2)cc1O` (repeat unit) were, in that order, 0.0562 Barrer, 4.85 Barrer, 0.168 Barrer and 1.22 Barrer.
For the compound `*c1ccc(Cc2ccc(N3C(=O)c4ccc(Oc5ccc(Oc6ccc7c(c6)C(=O)N(*)C7=O)cc5)cc4C3=O)cc2)cc1` (repeat unit), the CH4 permeability amounted to 0.0222 Barrer, the CO2 permeability is 1.22 Barrer, the H2 permeability is 5.08 Barrer and the N2 permeability was found to be 0.0357 Barrer. This compound came in with an O2 permeability of 0.242 Barrer.
Compound `*c1ccc(N(c2ccc(N3C(=O)c4ccc(C(c5ccc6c(c5)C(=O)N(*)C6=O)(C(F)(F)F)C(F)(F)F)cc4C3=O)cc2)c2ccc(N(c3ccc(OC)cc3)c3ccc(OC)cc3)cc2)cc1` (repeat unit) had a CH4 permeability of 0.4 Barrer, a CO2 permeability of 13 Barrer, an N2 permeability of 0.59 Barrer and an O2 permeability of 2.94 Barrer.
`*c1ccc(N(c2ccc(N3C(=O)c4ccc(C(c5ccc6c(c5)C(=O)N(*)C6=O)(C(F)(F)F)C(F)(F)F)cc4C3=O)cc2)c2ccc(N(c3ccccc3)c3ccccc3)cc2)cc1` (repeat unit) registered a CH4 permeability of 1.24 Barrer, a CO2 permeability of 11.8 Barrer, an N2 permeability of 0.45 Barrer and an O2 permeability of 1.97 Barrer.
Turning to `*c1ccc(N(c2ccc(OC)cc2)c2ccc(N3C(=O)c4ccc(C(c5ccc6c(c5)C(=O)N(*)C6=O)(C(F)(F)F)C(F)(F)F)cc4C3=O)cc2)cc1` (repeat unit), the CH4 permeability worked out at 0.5 Barrer, the CO2 permeability is 16.8 Barrer, the N2 permeability is 0.89 Barrer and the O2 permeability turned out to be 4.28 Barrer.
The like results for `*c1ccc(N(c2ccccc2)c2ccc(N3C(=O)c4ccc(C(c5ccc6c(c5)C(=O)N(*)C6=O)(C(F)(F)F)C(F)(F)F)cc4C3=O)cc2)cc1` (repeat unit) were, in that order, 0.08 Barrer, 4.73 Barrer, 0.08 Barrer and 0.69 Barrer.
For the compound `*c1ccc(N2C(=O)c3ccc(C(c4ccc5c(c4)C(=O)N(*)C5=O)(C(F)(F)F)C(F)(F)F)cc3C2=O)cc1` (repeat unit), the CH4 permeability stood at 1.31 Barrer, the CO2 permeability is 62 Barrer, the H2 permeability was 107 Barrer and the N2 permeability is 2.57 Barrer. Moreover, the O2 permeability worked out at 12.7 Barrer.
The compound `*c1ccc(Oc2ccc(-n3c(=O)c4cc5c(=O)n(*)c(=O)c5cc4c3=O)cc2)cc1` (repeat unit) displayed a CH4 permeability of 0.0682 Barrer, a CO2 permeability of 2.73 Barrer, an H2 permeability of 7.52 Barrer and an N2 permeability of 0.0995 Barrer. Also, the O2 permeability worked out at 0.591 Barrer.
`*c1ccc(Oc2ccc(C(c3ccc(Oc4ccc(-n5c(=O)c6cc7c(=O)n(*)c(=O)c7cc6c5=O)cc4)cc3)(C(F)(F)F)C(F)(F)F)cc2)cc1` (repeat unit): the CH4 permeability amounted to 0.499 Barrer, the CO2 permeability was found to be 14.7 Barrer, the H2 permeability came to 29.1 Barrer and the N2 permeability was 0.8 Barrer. Further, the O2 permeability is 3.94 Barrer.
The like results for `*c1ccc(Oc2ccc(C(c3ccc(Oc4ccc(N5C(=O)c6ccc(-c7ccc8c(c7)C(=O)N(*)C8=O)cc6C5=O)cc4)cc3)(C(F)(F)F)C(F)(F)F)cc2)cc1` (repeat unit) were, in that order, 0.18 Barrer, 6.14 Barrer, 17.3 Barrer, 0.275 Barrer and 1.6 Barrer.
For `*c1ccc(Oc2ccc(C(c3ccc(Oc4ccc(N5C(=O)c6ccc(C(=O)c7ccc8c(c7)C(=O)N(*)C8=O)cc6C5=O)cc4)cc3)(C(F)(F)F)C(F)(F)F)cc2)cc1` (repeat unit), in that order: 0.105 Barrer, 4.67 Barrer, 16.1 Barrer, 0.195 Barrer and 1.14 Barrer.
For `*c1ccc(Oc2ccc(C(c3ccc(Oc4ccc(N5C(=O)c6ccc(C(=O)c7ccc8c(c7)C(=O)N(*)C8=O)cc6C5=O)cc4C(F)(F)F)cc3)(C(F)(F)F)C(F)(F)F)cc2)c(C(F)(F)F)c1` (repeat unit), in that order: 0.189 Barrer, 8.04 Barrer, 24.6 Barrer, 0.37 Barrer and 2.44 Barrer.
Turning to `*c1ccc(Oc2ccc(C(c3ccccc3)(c3ccccc3)c3ccc(Oc4ccc(*)cc4)cc3)cc2)cc1` (repeat unit), the CH4 permeability worked out at 0.14 Barrer, the CO2 permeability was determined as 9.57 Barrer, the N2 permeability was determined as 0.47 Barrer and the O2 permeability is 2.26 Barrer.
In turn, `*c1ccc(Oc2ccc(C3(c4ccc(Oc5ccc(N6C(=O)c7ccc(C(c8ccc9c(c8)C(=O)N(*)C9=O)(C(F)(F)F)C(F)(F)F)cc7C6=O)c(C)c5)cc4)OC(=O)c4ccccc43)cc2)cc1C` (repeat unit) yielded a CH4 permeability of 0.56 Barrer, a CO2 permeability of 21.4 Barrer, an N2 permeability of 1.1 Barrer and an O2 permeability of 5.71 Barrer.
In the case of `*c1ccc(Oc2ccc(C3(c4ccc(Oc5ccc(N6C(=O)c7ccc(C(c8ccc9c(c8)C(=O)N(*)C9=O)(C(F)(F)F)C(F)(F)F)cc7C6=O)cc5)cc4)c4ccccc4-c4ccccc43)cc2)cc1` (repeat unit), the CH4 permeability was found to be 0.69 Barrer, the CO2 permeability is 19.9 Barrer, the H2 permeability was found to be 61.3 Barrer and the N2 permeability is 1.26 Barrer. The compound also came in with an O2 permeability of 4.88 Barrer.
For `*c1ccc(Oc2ccc(C3(c4ccc(Oc5ccc(N6C(=O)c7ccc(C(c8ccc9c(c8)C(=O)N(*)C9=O)(C(F)(F)F)C(F)(F)F)cc7C6=O)cc5C(F)(F)F)cc4)c4ccccc4-c4ccccc43)cc2)c(C(F)(F)F)c1` (repeat unit), in that order: 2.43 Barrer, 61.8 Barrer, 151 Barrer, 5.2 Barrer and 20 Barrer.
Turning to `*c1ccc(Oc2ccc(N3C(=O)c4cc(Oc5ccc(C(C)(C)C)cc5)c(-c5cc6c(cc5Oc5ccc(C(C)(C)C)cc5)C(=O)N(*)C6=O)cc4C3=O)cc2)cc1` (repeat unit), the CH4 permeability came out at 3.16 Barrer, the CO2 permeability turned out to be 85.6 Barrer, the N2 permeability was found to be 2.95 Barrer and the O2 permeability was determined as 11.3 Barrer.
The like results for `*c1ccc(Oc2ccc(N3C(=O)c4cc(Oc5ccccc5)c(-c5cc6c(cc5Oc5ccccc5)C(=O)N(*)C6=O)cc4C3=O)cc2)cc1` (repeat unit) were, in that order, 0.85 Barrer, 30.1 Barrer, 0.83 Barrer and 3.59 Barrer.
For `*c1ccc(Oc2ccc(N3C(=O)c4ccc(-c5ccc6c(c5)C(=O)N(*)C6=O)cc4C3=O)cc2)cc1` (repeat unit), the CH4 permeability came out at 0.018 Barrer, the CO2 permeability came out at 0.921 Barrer, the H2 permeability was 3.5 Barrer and the N2 permeability worked out at 0.0215 Barrer. For the same compound, the O2 permeability is 0.174 Barrer.
The like results for `*c1ccc(Oc2ccc(N3C(=O)c4ccc(C(=O)c5ccc6c(c5)C(=O)N(*)C6=O)cc4C3=O)cc2)cc1` (repeat unit) were, in that order, 0.0109 Barrer, 0.625 Barrer, 4.19 Barrer, 0.0178 Barrer and 0.18 Barrer.
